Experimental data as given in PubChem BioAssay (NCI).
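Test compounds were applied to cells in 96-well plates for 48 hours at 5 doses. TGI is the concentration that stops growth completely.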

Tests used:
Assay in all cases: NCI tumour cell line growth inhibition, 48 h
ACHN renal = test system: ACHN renal
SF-295 CNS = test system: SF-295 CNS
U251 CNS = test system: U251 CNS
LOX IMVI melanoma = test system: LOX IMVI melanoma
MDA-N = test system: MDA-N
KM12 colon = test system: KM12 colon
SK-MEL-28 melanoma = test system: SK-MEL-28 melanoma
NCI-H23 lung = test system: NCI-H23 lung
T-47D breast = test system: T-47D breast
SF-268 CNS = test system: SF-268 CNS
PC-3 prostate = test system: PC-3 prostate
SNB-19 CNS = test system: SNB-19 CNS
OVCAR-5 ovarian = test system: OVCAR-5 ovarian
K-562 leukemia = test system: K-562 leukemia
SK-MEL-2 melanoma = test system: SK-MEL-2 melanoma
UACC-257 melanoma = test system: UACC-257 melanoma
BT-549 breast = test system: BT-549 breast
MOLT-4 leukemia = test system: MOLT-4 leukemia
CCRF-CEM leukemia = test system: CCRF-CEM leukemia

Row | Compound | TGI (ACHN renal) | TGI (SF-295 CNS) | TGI (U251 CNS) | TGI (LOX IMVI melanoma) | TGI (MDA-N) | TGI (KM12 colon) | TGI (SK-MEL-28 melanoma) | TGI (NCI-H23 lung) | TGI (T-47D breast) | TGI (SF-268 CNS) | TGI (PC-3 prostate) | TGI (SNB-19 CNS) | TGI (OVCAR-5 ovarian) | TGI (K-562 leukemia) | TGI (SK-MEL-2 melanoma) | TGI (UACC-257 melanoma) | TGI (BT-549 breast) | TGI (MOLT-4 leukemia) | TGI (CCRF-CEM leukemia)
1 | COc1ccc([C@H]2CC(=O)C[C@H](c3ccc(OC)cc3)C23C(=O)c2ccccc2C3=O)cc1 | > 100 µM | > 100 µM | > 100 µM | > 100 µM | 5.35 µM | > 100 µM | > 100 µM | > 100 µM | > 100 µM | > 100 µM | > 100 µM | > 100 µM | > 100 µM | > 100 µM | 17.5 µM | 7.74 µM | > 100 µM | > 100 µM | > 100 µM
2 | O=C1NCC(CSc2nc3cc(C4CCCc5c4[nH]c4ccccc54)ccc3o2)N1 (stereo not given) | > 100 µM | > 100 µM | > 100 µM | > 100 µM | > 100 µM | > 100 µM | > 100 µM | > 100 µM | > 100 µM | > 100 µM | > 100 µM | > 100 µM | > 100 µM | > 100 µM | > 100 µM | > 100 µM | > 100 µM | > 100 µM | > 100 µM
3 | COc1ccc(OC)c(-c2nc3n(c2/C=C2/C(=O)Nc4ccccc42)CCS3)c1 | > 100 µM | > 100 µM | > 100 µM | > 100 µM | 44.7 µM | > 100 µM | > 100 µM | > 100 µM | > 100 µM | > 100 µM | > 100 µM | > 100 µM | > 100 µM | > 100 µM | 79 µM | > 100 µM | > 100 µM | 78.2 µM | > 100 µM
4 | CC(Cc1ccccc1)Nc1ncnc2c1ncn2C1OC(CO)CC1O (stereo not given) | > 100 µM | 6.21 µM | > 100 µM | > 100 µM | > 100 µM | > 100 µM | > 100 µM | > 100 µM | > 100 µM | > 100 µM | > 100 µM | > 100 µM | > 100 µM | > 100 µM | > 100 µM | > 100 µM | > 100 µM | > 100 µM | > 100 µM
5 | Fc1ccc(C(OCCN2CCN(CCCCl)CC2)c2ccc(F)cc2)cc1 | > 100 µM | 58.1 µM | > 100 µM | 32.9 µM | 45 µM | 38 µM | > 100 µM | 50.5 µM | 52.5 µM | 77.5 µM | > 100 µM | > 100 µM | 63.9 µM | 60.7 µM | 52 µM | 47.5 µM | 83.6 µM | > 100 µM | > 100 µM
6 | c1ccc(-c2nnc(-c3ccccn3)c3c2C[C@@H]2C[C@@H]4Cc5c(-c6ccccn6)nnc(-c6ccccn6)c5[C@@H]4[C@H]32)nc1 | > 100 µM | > 100 µM | 89.1 µM | > 100 µM | > 100 µM | > 100 µM | 75.9 µM | > 100 µM | > 100 µM | > 100 µM | > 100 µM | > 100 µM | > 100 µM | > 100 µM | > 100 µM | > 100 µM | > 100 µM | > 100 µM | > 100 µM
7 | COC(=O)C1CC2CCC1(O[Si](C(C)C)(C(C)C)C(C)C)C(O)C2 (stereo not given) | 80.4 µM | 47.2 µM | 31.9 µM | 27.5 µM | 57.4 µM | 38.6 µM | 44.9 µM | 44.9 µM | 76.7 µM | 79.2 µM | 47.7 µM | 44.2 µM | 27.2 µM | 28.9 µM | 32.1 µM |  | 79.3 µM | 30.1 µM | > 100 µM
8 | CC1(C)C2C=C(CCN3CCOCC3)CC1C2 (stereo not given) | > 100 µM | > 100 µM | > 100 µM | > 100 µM | > 100 µM | > 100 µM | > 100 µM | > 100 µM | > 100 µM | > 100 µM | > 100 µM | > 100 µM | > 100 µM | > 100 µM | > 100 µM | > 100 µM | > 100 µM | > 100 µM | > 100 µM
9 | CN1CCc2c3n(c4cc(Br)ccc24)[C@H](O)CCCC31 (stereo not given in full) | > 10 µM | 3.53 µM | 3.35 µM | 3.29 µM | 3.24 µM | 5.32 µM | 3.19 µM | > 10 µM | > 10 µM | > 10 µM | > 10 µM | > 10 µM | > 10 µM | 1.88 µM | 1.7 µM | 5.61 µM | > 10 µM | 3.97 µM | 3.74 µM
